Reference: PubChem BioAssay (NCI)
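Dose response: 5 concentrations. Exposure: 48 h. Format: 96-well plates. Endpoint: linear interpolation; highest concentration if not reached. GI50 is the concentration that inhibits growth by half. The concentration for full growth arrest is given as TGI.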 Where a SMILES comes first, the peptide text is derived from it. Bridges are numbered along the chain shown (N, C = ends). [ ]: non-standard residue; d: D form. ξ: configuration not given here. ξThr(3R) = C[C@@H](O)C(N)C(=O)O; S5 = C=CCCC[C@](C)(N)C(=O)O

Assays:
Assay in all cases: NCI-60 cell line screen, 48 h
NCI/ADR-RES ovarian = test system: NCI/ADR-RES ovarian
A498 renal = test system: A498 renal
SK-OV-3 ovarian = test system: SK-OV-3 ovarian
LOX IMVI melanoma = test system: LOX IMVI melanoma
OVCAR-4 ovarian = test system: OVCAR-4 ovarian
SN12C renal = test system: SN12C renal
RPMI-8226 leukemia = test system: RPMI-8226 leukemia
T-47D breast = test system: T-47D breast
A549 NSCLC = test system: A549 NSCLC
HCT-116 colon = test system: HCT-116 colon

SMILES | GI50 (NCI/ADR-RES ovarian) [µM] | TGI (NCI/ADR-RES ovarian) [µM] | GI50 (A498 renal) [µM] | TGI (A498 renal) [µM] | GI50 (SK-OV-3 ovarian) [µM] | TGI (SK-OV-3 ovarian) [µM] | GI50 (LOX IMVI melanoma) [µM] | TGI (LOX IMVI melanoma) [µM] | GI50 (OVCAR-4 ovarian) [µM] | TGI (OVCAR-4 ovarian) [µM] | GI50 (SN12C renal) [µM] | TGI (SN12C renal) [µM] | GI50 (RPMI-8226 leukemia) [µM] | TGI (RPMI-8226 leukemia) [µM] | GI50 (T-47D breast) [µM] | TGI (T-47D breast) [µM] | GI50 (A549 NSCLC) [µM] | TGI (A549 NSCLC) [µM] | GI50 (HCT-116 colon) [µM] | TGI (HCT-116 colon) [µM]
O=C1c2cccnc2C(=O)c2c1c(C(=O)NCCn1ccnc1)c1ccccn21 | 27.4 | > 100 | 5.43 | 17.6 | 8.88 | 21.3 | 1.59 | 5.54 | 1.62 | 3.95 | 2.28 | 7.28 | 5.95 | 88.4 | 3.24 | 11.6 | 1.6 | 6.82 | 3.18 | 9.58
CN(C)Cc1ccc(C(C)(C)C)cc1-c1cc(C(C)(C)C)ccc1CN(C)C |  | > 100 |  | > 100 |  | > 100 |  | > 100 |  | > 100 |  | > 100 |  | > 100 |  | > 100 |  | > 100 |  | > 100
CC(=O)N[C@H](C(=O)N[C@@H](CCCNC(=N)N)C(=O)N[C@@H](CCCCN)C(=O)N[C@@H](CCCNC(=N)N)C(=O)NC(C(=O)N[C@@H](CC(C)C)C(=O)N[C@@H](CCCNC(=N)N)C(=O)N[C@@]1(C)CCC/C=C\CCC[C@@](C)(C(=O)N[C@@H](CCCNC(=N)N)C(=O)N[C@@H](CCC(=O)O)C(=O)N[C@@H](CC(C)C)C(=O)N[C@H](C(=O)N[C@@H](CCC(=O)O)C(N)=O)C(C)C)NC(=O)[C@H](CCC(N)=O)NC(=O)[C@H](CC(C)C)NC(=O)[C@H](CC(C)C)NC1=O)[C@@H](C)O)C(C)C (stereo partly drawn) (Ac-VRKR[ξThr(3R)]LR[S5]LLQ[S5]RELVE-NH2; staple (Z) 8-12) | 7.9 | 16.7 | 8.69 | 18.4 | 5.55 | 14.9 | 8.64 | 18.8 | 9.5 | 20 | 3.33 | 10.7 | 8.77 | 18.9 | 1.05 | 2.68 | 6.42 | 14.3 | 8.87 | 17.1
CC(c1ccccc1)[C@@H](C(=O)Nc1ccc(I)cc1F)N1C(=O)N[C@H](c2ccc(OC[C@H](O)CO)cc2)C1=O (stereo not given in full) | > 25 | > 25 | 0.541 | 2.3 | > 25 | > 25 | 2.5 | > 25 | 8.97 | > 25 | 6.14 | > 25 | 11.9 | > 25 | 10.2 | > 25 | > 14.3 | > 25 | 1.12 | > 25
CCCCCC[C@@H](C)Nc1nc2ccccc2c2occc12 | 10.7 | 22.6 | 18.6 | 35.1 | 15.7 | 32.2 | 13.9 | 26.9 |  |  | 12.8 | 25.4 | 1.47 | > 100 | 7.24 | 23.2 | 19.4 | 78.2 | 4.87 | 18.1
COc1c(O)cc2c(c1O)C(=O)C1=C(CCCC1)C2=O |  | 51.5 |  | 47.7 |  | 48.8 |  | 33.6 |  | 95.6 |  | 58.3 |  | 32.6 |  | 50.2 |  | 87.3 |  | 43.2
CCN(CC)CCC(CNc1ccnc2cc(Cl)ccc12)c1ccccc1 (stereo not given) | 9.92 | 48.4 | 2.41 | 13 | 18.4 | 52.8 | 1.77 | 5.17 | 5.89 | 35.7 | 16.3 | > 100 | 3.11 | 13.5 | 2.85 | 8.08 | 11.6 | 26.3 | 2.8 | 15.4
CCN(CC)c1ccc2nc3c4ccccc4c(=O)cc-3n(-c3ccccc3)c2c1 | 2.34 | 7.86 | 0.653 | 4.59 | 1.91 | 5.92 | 1.62 | 3.72 | 1.2 | 15.1 | 2.72 | 40.2 | 0.49 | 2.58 | 0.194 | 0.87 | 1.45 | 3.96 | 1.35 | 3.27
Cc1ccc(Cl)cc1NC(=O)c1cc2ccccc2cc1O | 0.266 | 1.27 | 0.369 | 1.04 | 0.406 | 2.95 | 0.213 | 1.49 | 0.409 | > 100 | 0.265 | 1.92 | 0.106 | 0.354 | 1.14 | 5.06 | 0.418 | > 100 | 0.284 | 0.924
O=C(COc1ccc(OCC(=O)N2C(=O)CN(c3ccccc3)C2=S)cc1)N1C(=O)CN(c2ccccc2)C1=S | > 25 | > 100 | > 25 | > 100 |  | > 100 | 29.6 | > 100 | > 25 | > 100 | > 25 | > 100 | > 25 | > 100 | > 25 | > 100 | > 25 | > 100 | > 25 | > 100
CCOc1ccc2c(c1)CN(Cc1ccc(Cl)cc1)CO2 | 19.4 | 48.9 | 2.09 | 19.2 | 29.8 | > 100 | 17.2 | 33.4 | 19.8 | 50.3 | 25.9 | > 100 | 19.9 | 46.4 | 17.8 | 52.7 | 35.1 | > 100 | 14.8 | 29
C[C@@H](NC(=O)c1ncnc(N)c1Cl)c1ncc(C(=O)Nc2cc(C(F)(F)F)c(Cl)cn2)s1 | 24.5 | 82.5 | 7.94 | 24.7 | 31.2 | > 93.5 | 3.32 | 54 | 20.7 | 73.3 | 19.9 | > 93.7 | 15.2 | 49 | 24.2 | > 83.8 | 18 | 64.4 | 3.17 | > 68.9
CCN(CC)c1ccc(C2NC(=O)c3ccccc3N2)cc1 (stereo not given) |  | > 100 |  | > 31.6 |  | > 100 |  | > 100 |  | > 100 |  | > 100 |  | > 100 |  | > 100 |  | > 100 |  | > 100
Cc1nc(-c2cnc(NC(C)C)n(C)c2=O)ccc1Oc1ccnc(-c2cnn(C)c2)c1 | 8.35 | > 100 | 4.8 | 38.6 | 23.5 | > 100 | 20.7 | > 100 | 7.28 | > 100 | 19.7 | > 100 | 8.49 | 81.7 | 7.39 | 99.7 | 15 | > 100 | 4.67 | > 100
CCN(CC)CCN1C(=O)C2C3C(=O)CC(C)(CC3C)C2C1=O (stereo not given) | > 100 | > 100 | > 100 | > 100 | > 100 | > 100 | > 100 | > 100 | > 100 | > 100 | > 100 | > 100 |  |  | > 100 | > 100 | > 100 | > 100 | > 100 | > 100
CN(C)C=NC1CCC(C(C)(C)C)CC1 (stereo not given) |  | 32.8 |  | 49.6 |  | 44.8 |  | 29.7 |  | 51.1 |  | 34.6 |  |  |  | 37.5 |  | 38.9 |  | 31.9
O=C1C=CC(=Nc2cccc3c(N=C4C=CC(=O)O4)cccc23)O1 |  | > 100 |  | > 100 |  | > 100 |  | 91.2 |  | > 100 |  | 77.9 |  | 58.2 |  | > 100 |  | > 100 |  | 53.1
C(=Nc1cnc2ccccc2c1)c1ccc2ccccc2n1 |  | > 100 |  | > 100 |  | > 100 |  | > 100 |  | > 100 |  | > 100 |  | > 100 |  | > 100 |  | > 100 |  | > 100
O=C1c2ccccc2C(=O)c2c1ccc1c(=O)n(-c3ccccc3C(F)(F)F)nnc21 | 2.05 | 9.23 | 1.76 | 3.65 | 3.52 | > 100 | 1.59 | 4.2 | 1 | 2.21 | 2.23 | 28.9 |  |  | 1.86 | 6.98 |  |  | 1.85 | 10.5
COc1ccccc1/C=C/C1=C(C)CCC(c2ccccc2OC)C1C (stereo not given) | 0.105 |  | 0.0923 | 0.534 | 0.382 | > 100 | 0.184 | > 56.8 | 1.37 | > 100 | 0.323 | > 100 | 0.0449 | > 100 | 4.36 | > 100 | 0.223 |  | 0.108 | 3.14
COc1cccc(C2=C(c3cn(C)c4cc(F)ccc34)C(=O)NC2=O)c1 | 18.2 | > 25 | 5.96 | > 25 | > 25 | > 25 | 17.1 | > 25 | > 8.37 | > 25 | > 21.5 | > 25 | > 17.4 | > 25 | 15.3 | > 25 | > 17.4 | > 25 | 8.59 | > 25
CCCCCCCCCCCCCCCCCCOc1ccccc1CC(=O)OCC[N+](CC)(CC)CC | 7.58 | 17.5 | 2.13 | 8.49 | 3 | 12.1 | 0.881 | 1.66 | 1.75 | 7.42 | 1.3 | 5.68 |  |  | 1.48 | 8.16 | 1.44 | 7.42 | 1.61 | 7.76
Clc1ccc2ncc(-c3cccc(NC4CNC4)n3)n2c1 | 33.5 | > 100 | 5.7 | 19.7 | 9.24 | > 100 | 2.47 | 13.8 |  |  | 1.58 | > 100 |  |  | 20.2 | 73.8 | 4.71 | > 100 | 3.7 | > 100
O=C(O)c1c(Cl)c(Cl)c(Cl)c(Cl)c1C(=O)Nc1ccc2cn[nH]c2c1 |  | > 100 |  | > 100 |  | > 100 |  |  |  | > 100 |  | > 100 |  | > 100 |  | > 100 |  | > 100 |  | > 100
COc1ccc(C(=O)O[C@H]2[C@H](O[C@H]3[C@@H](O)COC(O[C@H]4C[C@H]5[C@@H]6CC=C7C[C@@H](O)CC[C@]7(C)[C@H]6CC[C@]5(C)[C@H]4[C@H](C)C(=O)CCC(C)C)[C@@H]3OC(C)=O)OC[C@@H](O)[C@@H]2O)c(C)c1 (stereo not given in full) | 8.48 | 86.1 | < 0.01 | < 0.01 | 0.0246 | 9.5 | < 0.01 | 0.0173 | 0.717 | > 100 | 11.7 | 29.7 |  |  | 0.0133 | 19.1 | < 0.01 | > 100 | < 0.01 | 15.8
COc1ccc2nc(-c3ccccc3)cc(Nc3cccc(C(C)=O)c3)c2c1 | 4.89 | 34.1 | 2.42 | 15 | 19.7 | 56.5 |  |  | 7.05 | 62.8 | 3.96 | 17.9 | 33.2 | > 100 | 13.4 | > 100 | 15.3 | 55.6 | 3.72 | 15.4
Cc1ccc(-c2nc3cc(Cl)c(Cl)cc3nc2C#N)cc1 | 81.2 | > 100 | > 100 | > 100 | > 100 | > 100 | > 100 | > 100 | > 100 | > 100 | > 100 | > 100 |  |  | > 100 | > 100 | > 100 | > 100 | 90.3 | > 100
